ChEMBL document CHEMBL5325494, “Glycogen synthase kinase-3: A potential target for diabetes” (Bioorg Med Chem, 2023)

Legend:
[1] = target: T1, Glycogen synthase kinase-3 beta (Homo sapiens, UniProt P49841); test: Inhibition of GSK-3beta (unknown origin)
[2] = target: T1, Glycogen synthase kinase-3 beta; test: Inhibition of full length GST-tagged human recombinant GSK-3beta (1 to 420 residues) expressed in Escherichia coli
PC-12 = test: Neuroprotective activity against CORT-induced damage in rat PC-12 cells measured after 24 hrs by MTT assay; type: functional, cell-based; settings: PC-12, 24 h
[3] = target: T1, Glycogen synthase kinase-3 beta; test: Inhibition of human wildtype full length GSK-3beta
[4] = target: T1, Glycogen synthase kinase-3 beta; test: Binding affinity to full length GST-tagged human recombinant GSK-3beta (1 to 420 residues) expressed in Escherichia coli assessed as inhibition constant
[5] = target: T1, Glycogen synthase kinase-3 beta; test: Inhibition of GSK-3beta (unknown origin) incubated for 1 hr by HTRF assay
[6] = target: T1, Glycogen synthase kinase-3 beta; test: Inhibition of human GSK-3beta

T1 sequence (P49841 whole entry, the tested form may be a part): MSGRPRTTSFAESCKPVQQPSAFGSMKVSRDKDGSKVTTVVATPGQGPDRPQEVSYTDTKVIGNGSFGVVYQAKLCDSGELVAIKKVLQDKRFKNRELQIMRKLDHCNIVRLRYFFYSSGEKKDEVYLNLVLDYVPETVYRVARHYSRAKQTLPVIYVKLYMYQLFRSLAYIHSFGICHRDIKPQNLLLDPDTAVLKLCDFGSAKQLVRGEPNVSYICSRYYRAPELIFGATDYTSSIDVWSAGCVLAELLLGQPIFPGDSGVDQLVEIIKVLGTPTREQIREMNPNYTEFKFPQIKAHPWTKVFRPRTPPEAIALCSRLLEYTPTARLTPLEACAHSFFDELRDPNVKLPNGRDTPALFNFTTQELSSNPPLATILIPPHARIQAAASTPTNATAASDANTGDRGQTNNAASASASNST

`CN1CCN(c2ccc(NCCNc3ccc([N+](=O)[O-])c(N)n3)nc2-c2ccc(Cl)cc2Cl)C(=O)C1` was tested, and the IC50 [1] was 8 nM.
Compound `Nc1ncc(-c2ccc(S(=O)(=O)N3C=COCC3)cc2)nc1C(=O)Nc1cccnc1` has an IC50 [2] of 10 nM.
`N#C[C@@H](CC1=NN2C(N)=NC(NC3CCCCC3)=NC2N1)C(N)=O` (some centres undefined) gave an EC50 (PC-12) of 3 nM.
`COc1ccccc1-c1c2c(nc3[nH]nc(C)c13)CC(C)(C)CC2=O` was tested, and the IC50 [3] was 54 nM.
For `COCCNC(=O)c1nc(-c2ccc(S(=O)(=O)N3C=CN(C)CC3)cc2)cnc1N`, the Ki [4] was 90 nM.
Work on `O=C(O)C1=CN2C3C(=C(NCCNc4ccccn4)C(F)=CC3C1=O)OCCC21CCC1` (centres undefined) yielded an IC50 [1] of 36 nM.
With `COCCN1CCC(CNC(=O)c2ncc3ccc(-c4cncc(OC(C)C)c4)cn23)CC1` the IC50 [5] was 9 nM.
`Nc1nc(NCCNc2ncc(-c3ncc[nH]3)c(-c3ccc(Cl)cc3Cl)n2)ccc1[N+](=O)[O-]` was tested, and the IC50 [1] was 0.06 nM.
Compound `CC(/C=C1\SC(=S)N(CC(=O)O)C1=O)=C\c1ccccc1` has an IC50 [6] of 21 nM.
